The values that follow come from patent US8642622B2, “Piperidinyl compound as a modulator of chemokine receptor activity” (Bristol-Myers Squibb Company, priority 2010, dated 2014).

In the data set the target is T1, Human PXR (Homo sapiens, UniProt O75469).
T1 construct: expressed in transfected cells; host or cells: HepG2
T1 sequence (O75469 1-434): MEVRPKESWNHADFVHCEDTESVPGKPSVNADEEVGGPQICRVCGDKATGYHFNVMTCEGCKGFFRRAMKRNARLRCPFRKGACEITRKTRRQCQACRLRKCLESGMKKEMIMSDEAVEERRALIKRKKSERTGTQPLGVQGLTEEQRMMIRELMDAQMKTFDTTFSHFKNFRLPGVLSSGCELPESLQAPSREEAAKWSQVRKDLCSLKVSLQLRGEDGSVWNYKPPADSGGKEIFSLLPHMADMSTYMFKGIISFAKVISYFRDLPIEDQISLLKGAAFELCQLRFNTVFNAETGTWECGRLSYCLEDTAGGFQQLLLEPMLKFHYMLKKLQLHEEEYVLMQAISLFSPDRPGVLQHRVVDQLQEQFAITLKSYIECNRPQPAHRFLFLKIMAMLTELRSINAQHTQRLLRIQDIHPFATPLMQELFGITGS
As to the kind of experiment: PXR transactivation assay (HepG2, CYP3A-Luc reporter). The class given is cell-based. An excerpt: The cell culture medium used is DMEM. […] Charcoal/dextran treated fetal bovine serum (FBS) was purchased from Hyclone (Logan, Utah). HepG2 cells were obtained from ATCC (Manassas, Va.). Human PXR-pcDNA3 and luciferase reporter containing CYP3A4 promoter, CYP3A-Luc, were generated at Bristol-Myers Squibb. White tissue culture (TC)-surface 384-well plates were purchased from Perkin Elmer (Boston, Mass.). Luciferase substrate (Steady-Glo) was purchased from Promega (Madison, Wis.). Control compounds rifampicin, mifepristone, and sulfinpyrazone were purchased from Sigma (St. Louis, Mo.).
Culture of HepG2 cells is performed in T175 flasks using DMEM containing 10% FBS. The transfection mixture contains 1 μg/mL of PXR-pcDNA3 plasmid DNA, 20 μg/ml of Cyp3A-Luc plasmid DNA, 90 μL/mL of Lipofectamine 2000, and serum-free medium. After incubating at room temperature for 20 minutes, the transfection mixture (1 ml per flask) is applied to the cells in fresh medium (20 mL per flask), and flasks incubated at 37° C. (5% CO2) overnight.
The flasks are then tapped vigorously to break up cell aggregates. After the addition of 8 mL of DMEM containing 5% charcoal/dextran-treated FBS, the entire mixture is transferred to conical tubes. Cells are then centrifuged at 1000 rpm for 5 minutes. Cell pellets are resuspended to a final count of ˜7×10^6 cells/mL in freezing media (DMEM containing 20% serum and 10% DMSO). The cell suspension is aliquoted into 15-mL polypropylene tubes, 5 mL per tube. Cells are slowly frozen by placing in a Styrofoam-insulated container at −80° C. overnight. Vials are transferred to an Ultracold (−140° C.) freezer after 24 hours for long-term storage.
Vials of cryopreserved cells are thawed rapidly in a warm water bath for five minutes. Cells are pooled and diluted to 50 mL in a 50-mL conical vial. The thawed cells are centrifuged at 1500 rpm for 5 minutes to collect the cells and the supernatant discarded. Cells are then resuspended in fresh Media II (DMEM containing 5% charcoal/dextran-treated FBS, 1% Penicillin/Streptomycin, 100 μM Non-essential Amino Acids, 1 mM Sodium Pyruvate, and 2 mM L-Glutamine), counted using the Guava Cell Counter, and diluted to 1.6×10^5 cells/ml in the same media.
Fifty microliters of cell mixture is added to wells in columns 1-23 of white tissue-culture treated 384-well plates containing 0.25 μL of test compound dissolved in 100% DMSO. Fifty microliters of Media II is added to wells in column 24. The plates are incubated at 37° C. (5% CO2) for 24 hours, then 5 μL of Alamar Blue reagent (Trek Diagnostics, Cat #00-100) is added to each well. Plates are then incubated an additional two hours at 37° C., 5% CO2 and then one hour at room temperature. […] After the fluorescence is measured, 25 μL of luciferase substrate (Steady-Glo, Promega) is added to each well. The plates are incubated for fifteen minutes at room temperature, after which the luminescence is read on a PheraStar (BMG Labtech) plate reader.
Rifampicin (10 μM), a well-known agonist of PXR, is included in each plate as an internal standard and positive control. The data is then expressed as percent control (% CTRL), where the control signal is the signal from the 10 μM rifampicin and the blank signal is that from the DMSO vehicle. % CTRL=((Compound signal−Blank signal)/(Control signal−Blank signal))*100
The EC50 is defined as the concentration corresponding to half of the maximal response derived from the fitted 20-point curve as determined using a four-parameter logistic regression model. Additionally, compounds may also be reported as EC20 or EC60.

Each structure is given as a SMILES string. Where only a bound is given, the exact number is not on record here.

The EC50 is the concentration giving half of the maximal effect. A higher EC50 goes with weaker potency. On to `CC(C)[C@@H](NC(=O)[C@@H]1CCC(F)(F)C1)C(=O)N1CC[C@](O)(c2ccc(Cl)cc2)[C@@](C)(O)C1` [Compound I, (R)—N—((R)-1-((3S,4S)-4-(4-chlorophenyl)-3,4-dihydroxy-3-methylpiperidin-1-yl)-3-methyl-1-oxobutan-2-yl)-3,3-difluorocyclopentanecarboxamide], for which the “PXR activation (in vitro screen, in words)” value is “not a significant activator”. Besides, the EC50 (HepG2, relative to 10 μM rifampicin) is > 50 µM. Regarding `CC(C)COC(=O)N[C@@H](C(=O)N1CC[C@](O)(c2ccc(Cl)cc2)C(C)(C)C1)C(C)C` [Example 1083], where the note is “reported as EC20”, the “PXR EC20” value is 1.9 (EC20) μM.
